Source: patent US20230366033A1, “METHODS FOR TREATING CANCERS WITH INHIBITORS TARGETING THE ROLE OF GRB2 IN DNA REPAIR” (Board of Regents, The University of Texas System, priority 2020, published 2023)

Experiments:
[1] = system: K109R mutant (KO+K109R) HeLa cells; assay: Annexin V/PI staining assay, flow cytometry; format: cell-based; details: K109R GRB2 reconstituted cells, 50 μM olaparib for 72 h
Excerpt: (§1) FIGS. 7A-7F. GRB2 KO sensitizes cells to PARPi. (FIG. 7A) MRE11 depletion levels with two different shRNA (KD1 and KD2) in U2OS cells with normal level of GRB2 (Ctrl) and GRB2-knockout (KO). (FIG. 7B) DR-GFP reporter assay in MRE11 knockdown control (Ctrl) and GRB2-KO U2OS cells. (FIG. 7C) DR-GFP reporter assay in PTEN-knockdown and/or GRB2-KO U2OS cells. (FIG. 7D) SRB assay of olaparib-induced cytotoxicity in control HeLa cells, GRB2-KO cells and GRB2-KO cells reconstituted with WT or K109R mutant GRB2. IC50 values are shown. (FIG. 7E) Clonogenic assay evaluating the effect of a PARPi on colony formation of HeLa cells. Cells were treated with the indicated concentrations of the PARPi olaparib and cultured for 10 days, then the resulting colonies were visualized with crystal violet staining and counted by Gelcount instrument. Parental control (WT), GRB2-KO (KO), ^WTGRB2 (KO+GRB2) and ^K109RGRB2 (KO+K109R) reconstituted HeLa cells. For each concentration on the X-axis, the columns represent, from left to right, WT, GRB2 KO, KO+GRB2, and KO+K109R. ***, p≤0.001; NS, not significant. (FIG. 7F) Bar graph representing Annexin-V/propidium iodide combined labeling and flow cytometry analysis of olaparib-treated control (WT), GRB2-KO, reconstituted ^WTGRB2(KO+GRB2) and K109R mutant (KO+K109R) HeLa cells. Cells were treated with either DMSO or 50 μM olaparib for 72 h. For each treatment group on the X-axis, the columns represent, from left to right, WT, GRB2 KO, KO+GRB2, and KO+K109R. All data are representative of three independent experiments. The significance was analyzed by two-sided student's t-test. *, p≤0.05; **, p≤0.01; ***, p≤0.001; NS, not significant.
(§2) Annexin V/PI staining assay. To determine the percentage of olaparib-induced apoptotic cells, an Annexin V-propidium iodide (PI) staining assay was used according to the standard protocol (Life Technologies). […] After incubation for 15 min at room temperature in the dark, samples were analyzed on a flow cytometer (FACSCanto IL, BD Biosciences) for the detection of Annexin V- and PI-positive subpopulations. […]

[2] = system: GRB2-KO HeLa cells; assay: Annexin V/PI staining assay, flow cytometry; format: cell-based; details: 50 μM olaparib for 72 h
Excerpt: as §1, §2

[3] = system: control (WT) HeLa cells; assay: Annexin V/PI staining assay, flow cytometry; format: cell-based; details: 50 μM olaparib for 72 h
Excerpt: as §1, §2

[4] = system: K109R GRB2 reconstituted HeLa cells; assay: Clonogenic survival assay with olaparib; format: cell-based; details: cultured for 10 days
Excerpt: as §1, with “significant. […]” for “significant. (FIG. 7F) Bar graph representing Annexin-V/propidium iodide combined labeling and flow cytometry analysis of olaparib-treated control (WT), GRB2-KO, reconstituted ^WTGRB2(KO+GRB2) and K109R mutant (KO+K109R) HeLa cells. Cells were treated with either DMSO or 50 μM olaparib for 72 h. For each treatment group on the X-axis, the columns represent, from left to right, WT, GRB2 KO, KO+GRB2, and KO+K109R. All data are representative of three independent experiments.”, “significant. […]” for “significant.”

[5] = system: GRB2-KO HeLa cells; assay: Clonogenic survival assay with olaparib; format: cell-based; details: cultured for 10 days
Excerpt: as §1, with “significant. […]” for “significant. (FIG. 7F) Bar graph representing Annexin-V/propidium iodide combined labeling and flow cytometry analysis of olaparib-treated control (WT), GRB2-KO, reconstituted ^WTGRB2(KO+GRB2) and K109R mutant (KO+K109R) HeLa cells. Cells were treated with either DMSO or 50 μM olaparib for 72 h. For each treatment group on the X-axis, the columns represent, from left to right, WT, GRB2 KO, KO+GRB2, and KO+K109R. All data are representative of three independent experiments.”, “significant. […]” for “significant.”

[6] = system: GRB2-KO HeLa cells reconstituted with K109R mutant GRB2; assay: SRB assay of olaparib-induced cytotoxicity; format: cell-based; details: Homo sapiens, GRB2-KO cells reconstituted with K109R GRB2, sulforhodamine B assay
Excerpt: as §1
(§3) Cell culture. HEK293T, NIH3T3 and A431 cells (purchased from ATCC) and mouse embryonic fibroblasts (MEFs) and H2AX-KO MEFs (gifts from Andre Nussenzweig, Center for Cancer Research, National Cancer Institute) were maintained in Dulbecco's modified Eagle's high-glucose medium (DMEM). HeLa cells (ATCC) were maintained in RPMI 1640 medium, HAP1 cells (Horizon Discovery) were maintained in Iscove's Modified Dulbecco's medium. U2OS cells (ATCC) were maintained in McCoy's 5A medium. Media were supplemented with 10% (vol/vol) fetal bovine serum (FBS) and 1% antibiotic/antimycotic (Lonza) in a humidified incubator with 10% CO2. Stable HEK293T cells containing Strep-tagged GRB2 or GRB2 mutants were produced as described previously (Ahmed et al., 2013). The I-SecI reporter assay (a generous gift from Jeremy Stark, City of Hope) was performed as described previously(Gunn and Stark, 2012). The sulforhodamine B (SRB) cytotoxicity and colony formation assays were performed as described previously(Houl et al., 2019).

[7] = system: control HeLa cells; assay: SRB assay of olaparib-induced cytotoxicity; format: cell-based; details: Homo sapiens; WT control HeLa cells, sulforhodamine B assay
Excerpt: as §1, §3

[8] = system: GRB2-KO HeLa cells reconstituted with WT GRB2; assay: SRB assay of olaparib-induced cytotoxicity; format: cell-based; details: Homo sapiens, GRB2-KO cells reconstituted with WT GRB2, sulforhodamine B assay
Excerpt: as §1, §3

[9] = system: GRB2-KO HeLa cells; assay: SRB assay of olaparib-induced cytotoxicity; format: cell-based; details: sulforhodamine B assay
Excerpt: as §1, §3

[10] = molecular target: T1, human MRE11 (residue 1-411) (Homo sapiens, UniProt P49959); assay: Microscale thermophoresis (MST) binding of GRB2 WT and mutants; details: bacterially expressed proteins lacking ubiquitination
T1 construct: Human MRE11 core (residues 1-411) purification was described previously; 6xHis; made in house
T1 sequence (P49959 1-411): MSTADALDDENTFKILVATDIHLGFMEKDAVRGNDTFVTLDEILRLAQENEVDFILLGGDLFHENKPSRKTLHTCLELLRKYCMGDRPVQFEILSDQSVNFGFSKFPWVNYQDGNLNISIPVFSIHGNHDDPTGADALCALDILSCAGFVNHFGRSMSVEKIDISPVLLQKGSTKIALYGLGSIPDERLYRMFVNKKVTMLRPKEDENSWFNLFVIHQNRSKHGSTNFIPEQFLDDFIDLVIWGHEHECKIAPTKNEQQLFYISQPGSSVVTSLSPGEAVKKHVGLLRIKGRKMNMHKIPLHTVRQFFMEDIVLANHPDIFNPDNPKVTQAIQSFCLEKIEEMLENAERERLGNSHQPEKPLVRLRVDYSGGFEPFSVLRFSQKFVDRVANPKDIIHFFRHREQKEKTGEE
Excerpt: FIGS. 2A-2H. Interactions of nGRB2 with DNA damage response factors. (FIG. 2A) Mass spectrometry identifies nuclear GRB2-associated proteins that are involved in DNA damage repair. Mean of coverage and unique peptides from three independent data sets are shown. (FIG. 2B) Strep-Tactin precipitation of Strep-GRB2 precipitated from HEK293T cells followed by western blotting with indicated antibodies. (FIG. 2C) GRB2 preferentially co-precipitate MRE11 without RAD50 or NBS1. Strep-GRB2 expressed HEK293T cells treated with or without 5 Gy IR were lysed immediately followed by Strep-Tactin precipitation and immunoblotting with indicated antibodies. (FIG. 2D) Immunoprecipitation of NBS1. HEK293T cells were co-transfected with RFP-GRB2 and GFP-NBS1 or GFP alone as control. Total cell lysates were precipitated with GFP-trap beads and immunoblotted with indicated antibodies. (FIG. 2E) Immunoprecipitation of RAD50. HEK293T cells expressing Flag-RAD50 or Flag-Ctrl were co-transfected with RFP-GRB2 for 24 h. Unperturbed cells were immunoprecipitated with Flag-M2 beads and immunoblotted with indicated antibodies. β-Actin was used as a loading control. (FIG. 2F) Immunoprecipitation of MRE11. […]
(§4) Microscale thermophoresis. […] The Kd values were measured using the Monolith NT.115 system (Nano Temper). […] Labeling efficiency was determined to be 1:1 (protein:dye) by measuring the absorbance at 280 and 488 nm. […]

[11] = molecular target: T2, RPA70 N-terminal domain (residue 1-120) (Homo sapiens, UniProt P27694); assay: Microscale thermophoresis (MST) binding; details: 50 nM Atto488-labelled RPA70N
T2 construct: 6xHis; made in house
Excerpt: FIGS. 3A-3I. Identification of GRB2 binding interfaces on MRE11, RPA70 and H2AX. (FIG. 3A) Schematic DDR binding-motifs (circles) on GRB2 within its domain architecture. Approximate non-canonical binding motifs are shown. (FIG. 3B) GST-SH domains pulldown of HEK293T cell-extracts followed by immunoblotting with indicated antibodies. (FIG. 3C) GST pulldown of bacterially expressed and purified human MRE11 with indicated GRB2 SH-domains. (FIG. 3D) OB1 fold binding motifs sequence alignment (top). MST isotherms of 50 nM Atto488-labelled RPA70 N-terminal domain (residue 1-120) binding to titrating concentrations (2 nM to 20 μM) of GRB2 or GRB2-derived OB1 peptide. The binding affinity (Kd) is shown. (FIG. 3E) Strep-Tactin precipitation of WT and DF/AA mutant from HEK293T cells that were either untreated (normal) or immediately after IR treated (5 Gy) and lysed, followed by western blot detection with the indicated antibodies. (FIG. 3F) MST-binding isotherms of an Atto488-labelled GRB2-SH2 domain (100 nM) binding to titrating concentrations (30 nM to 500 μM) of synthetic peptides derived from indicated proteins. […]
as §4

T2 sequence (P27694 1-120): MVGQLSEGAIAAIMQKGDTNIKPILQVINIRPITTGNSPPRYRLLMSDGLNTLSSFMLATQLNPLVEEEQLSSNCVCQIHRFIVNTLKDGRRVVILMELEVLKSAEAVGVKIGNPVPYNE

O=C(c1cc(Cc2n[nH]c(=O)c3ccccc23)ccc1F)N1CCN(C(=O)C2CC2)CC1 [olaparib]
olaparib-induced apoptosis phenotype [1]: failed to rescue the phenotype
olaparib-induced apoptosis [2]: 60%
olaparib-induced apoptosis [3]: 20%
colony formation in response to olaparib [4]: severe reduction in colony formation
colony formation in response to olaparib [5]: severe reduction in colony formation
IC50 [6]: 20 ± 3 µM
IC50 [7]: 124 ± 41 µM
IC50 [8]: 164 ± 47 µM
IC50 ([9]; Homo sapiens, HeLa, GRB2-KO cells): 18 ± 2.9 µM
sensitivity to olaparib, GRB2-KO cells versus WT control cells [9]: 7 times

K109A mutant: ubiquitination-defective GRB2 K109A mutant, bacterially expressed
dissociation constant (Kd), interaction with MRE11 [10]: intact MRE11 binding

K109R mutant: GRB2 lysine-to-arginine mutant at K109, bacterially expressed
dissociation constant (Kd), interaction with MRE11 [10]: no binding

KYDFKATADDELSFKRG
binding to RPA70N [11]: interacted with RPA70N

non-ubiquitinated GRB2: bacterially expressed and purified wild-type growth factor receptor-bound protein 2
binding to RPA70N [11]: direct binding
